The record followed here is patent US20240383923A1, “HETEROARYL DERIVATIVE AND USE THEREOF” (VORONOI INC., priority 2022, published 2024).

As a reminder, the GI50 is the concentration at which growth is held to half of that of the control. The IC50 is the point on the concentration scale where inhibition reaches its midpoint.

Each structure is given as a SMILES string. A value given as a limit tells only on which side of the number the result lay.

Assay [1] concerns BT-474 cancer cells. As to the kind of experiment: Inhibition of BT-474 cell proliferation (CellTiter-Glo). Particulars: Homo sapiens, BT-474 cells, 120 hours. It is filed as cell-based. In a few lines:
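BT-474 cells in RPMI-1640 with 20% FBS, seeded 48 h before dosing with 11 three-fold dilutions (final 0.2 nM to 10 μM). Viability read by CellTiter-Glo luminescence 120 h after treatment, triplicate tests. GI50 derived from growth rate (%) versus control.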
(ATP-based viability assays read luminescence as a measure of living cells.)

Assay [2] deals with N-87 cancer cells. Put plainly: Inhibition of N-87 cell proliferation (CellTiter-Glo). Particulars: N-87 cells, 72 hours. The assay is classed as cell-based. On the procedure: N-87 cancer cells were cultured by using RPMI-1640 medium with 10% FBS. The N-87 cancer cells were seeded to a white clear bottom 96 well plate (Corning) at 5,000 cells per well 24 hours before the […] cancer cells were treated with Example Compounds. Example Compounds were diluted in dimethylsulfoxide (5-fold diluted, total 11 concentrations) and 0.5 μL each was injected so that the final concentration was […]. For the measurement of living cells, the cells were stored at room temperature for 10 minutes using the CellTiter-Glo cell viability reagent (Promega) after 72 hours after the treatment of Example Compounds, and then the luminescence intensity was measured using the reader (SynergyNeo, Biotek).
The result value was calculated as a cell growth rate (%) compared to a control group. Graphs were plotted and GI50 values were calculated using the GraphPad Prism version 8.0 program, and the results are shown in Table 18 below.

The target of assay [3] is T1, HER2 enzyme (Homo sapiens, UniProt P04626).
T1 construct: purchased Reaction Biology Corp. (San Diego, USA); outsourced assay service
As to the kind of experiment: Biochemical kinase assay for HER2 (Reaction Biology Corp.). Particulars: ATP 10 μM, 3-fold dilution from 10 μM. As to the method: A biochemical kinase assay for HER2 was conducted through Reaction Biology Corp. (San Diego, USA).

T1 sequence (P04626 23-1255): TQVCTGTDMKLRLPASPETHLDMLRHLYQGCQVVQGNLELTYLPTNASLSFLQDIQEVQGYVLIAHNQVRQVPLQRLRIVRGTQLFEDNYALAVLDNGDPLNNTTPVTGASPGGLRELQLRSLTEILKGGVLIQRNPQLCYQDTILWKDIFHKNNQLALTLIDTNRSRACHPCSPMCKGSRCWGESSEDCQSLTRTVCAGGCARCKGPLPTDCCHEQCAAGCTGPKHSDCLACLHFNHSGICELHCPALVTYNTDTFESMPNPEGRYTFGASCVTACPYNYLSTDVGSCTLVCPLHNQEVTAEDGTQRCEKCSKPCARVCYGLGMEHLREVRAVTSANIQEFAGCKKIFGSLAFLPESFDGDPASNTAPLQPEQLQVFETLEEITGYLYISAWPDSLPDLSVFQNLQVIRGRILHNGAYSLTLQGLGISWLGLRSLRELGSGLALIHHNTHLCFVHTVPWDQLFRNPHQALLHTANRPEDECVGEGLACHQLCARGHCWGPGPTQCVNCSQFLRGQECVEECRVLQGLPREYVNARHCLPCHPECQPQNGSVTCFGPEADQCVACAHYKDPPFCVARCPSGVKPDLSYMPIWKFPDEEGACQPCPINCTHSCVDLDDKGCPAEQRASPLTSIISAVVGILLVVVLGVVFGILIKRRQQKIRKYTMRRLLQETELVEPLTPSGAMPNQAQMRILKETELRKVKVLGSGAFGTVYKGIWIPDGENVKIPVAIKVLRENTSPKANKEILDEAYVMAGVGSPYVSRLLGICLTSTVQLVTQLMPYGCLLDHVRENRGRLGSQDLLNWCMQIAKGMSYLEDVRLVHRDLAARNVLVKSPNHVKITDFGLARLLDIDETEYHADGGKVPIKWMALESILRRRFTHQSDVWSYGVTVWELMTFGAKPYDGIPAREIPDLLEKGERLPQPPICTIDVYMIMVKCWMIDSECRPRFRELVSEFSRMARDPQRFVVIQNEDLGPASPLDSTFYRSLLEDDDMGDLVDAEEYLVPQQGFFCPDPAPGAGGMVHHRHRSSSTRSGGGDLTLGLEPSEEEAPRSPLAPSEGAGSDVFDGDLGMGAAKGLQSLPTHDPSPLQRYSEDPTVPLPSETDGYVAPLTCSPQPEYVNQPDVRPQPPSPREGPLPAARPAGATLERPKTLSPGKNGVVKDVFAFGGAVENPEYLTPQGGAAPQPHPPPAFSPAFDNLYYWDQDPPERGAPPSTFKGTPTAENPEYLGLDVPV

As to `C=CC(=O)N1CCC(Oc2cc3c(Nc4ccc(Oc5cccc(F)c5)cc4OC)ncnc3cc2OC)CC1` [Example 7, 1-(4-((4-((4-(3-fluorophenoxy)-2-methoxyphenyl)amino)-7-methoxyquinazolin-6-yl)oxy)piperidin-1-yl)prop-2-en-1-one], the GI50 in assay [1] and in assay [2] was no more than 50 nM each time.
As for `C=CC(=O)N1CCC(Oc2cc3c(Nc4ccc(Oc5ccn(-c6cnc(C)c(F)c6)n5)cc4OC)ncnc3cc2OC)CC1` [Example 9, 1-(4-((4-((4-((1-(5-fluoro-6-methylpyridin-3-yl)-1H-pyrazol-3-yl)oxy)-2-methoxyphenyl)amino)-7-methoxyquinazolin-6-yl)oxy)piperidin-1-yl)prop-2-en-1-one], the values for the GI50 in assay [1] and in assay [2] were 50 to 100 nM and no more than 50 nM, respectively.
For `C=CC(=O)N1CCC(Oc2cc(OC)cc3ncnc(Nc4cc(C)c(Oc5ccn6ncnc6c5)cc4OC)c23)C(F)(F)C1` (stereo not drawn) [Example 15, 1-(4-((4-((4-([1,2,4]triazolo[1,5-a]pyridin-7-yloxy)-2-methoxy-5-methylphenyl)amino)-7-methoxyquinazolin-5-yl)oxy)-3,3-difluoropiperidin-1-yl)prop-2-en-1-one], the GI50 in assay [1] and in assay [2] was no more than 50 nM throughout.
Turning to `C=CC(=O)N1CCC(F)(F)C(Oc2cc(OC)cc3ncnc(Nc4cc(C)c(Oc5ccn6ncnc6c5)cc4OC)c23)C1` (stereo not drawn) [Example 16, 1-(3-((4-((4-([1,2,4]triazolo[1,5-a]pyridin-7-yloxy)-2-methoxy-5-methylphenyl)amino)-7-methoxyquinazolin-5-yl)oxy)-4,4-difluoropiperidin-1-yl)prop-2-en-1-one], the GI50 in assay [1] and in assay [2] was no more than 50 nM throughout.
In the case of `C=CC(=O)Nc1cc2c(Nc3cc(Cl)c(Oc4ccccn4)cc3OC)ncnc2cc1OC` [Example 24, N-(4-((5-chloro-2-methoxy-4-(pyridin-2-yloxy)phenyl)amino)-7-methoxyquinazolin-6-yl)acrylamide], the GI50 in assay [1] and in assay [2] was no more than 50 nM each time.
For `COc1cc2ncnc(Nc3cc(Cl)c(Oc4cccc(F)c4)cc3OC)c2cc1NC(=O)/C=C/[C@H]1CCCN1` [Example 31, (R,E)-N-(4-((5-chloro-4-(3-fluorophenoxy)-2-methoxyphenyl)amino)-7-methoxyquinazolin-6-yl)-3-(pyrrolidin-2-yl)acrylamide], the GI50 in assay [1] and in assay [2] was no more than 50 nM each time.
Consider `COc1cc2ncnc(Nc3cc(Cl)c(Oc4ccn5ncnc5c4)cc3OC)c2cc1NC(=O)/C=C/[C@H]1CCCN1C` [Example 32, (R,E)-N-(4-((4-([1,2,4]triazolo[1,5-a]pyridin-7-yloxy)-5-chloro-2-methoxyphenyl)amino)-7-methoxyquinazolin-6-yl)-3-(1-methylpyrrolidin-2-yl)acrylamide], for which the GI50 in assay [1] and in assay [2] was no more than 50 nM each time.
On to `COc1cc2ncnc(Nc3cc(C)c(Oc4ccn5ncnc5c4)cc3OC)c2cc1NC(=O)/C(F)=C\[C@H]1CCCN1C` [Example 41, (R,E)-N-(4-((4-([1,2,4]triazolo[1,5-a]pyridin-7-yloxy)-2-methoxy-5-methylphenyl)amino)-7-methoxyquinazolin-6-yl)-2-fluoro-3-(1-methylpyrrolidin-2-yl)acrylamide], for which the GI50 in assay [1] and in assay [2] was no more than 50 nM throughout.
For `COc1cc2ncnc(Nc3ccc(Oc4ccn5ncnc5c4)cc3OC)c2cc1NC(=O)/C(F)=C\[C@H]1CCCN1C` [Example 46, (R,E)-N-(4-((4-([1,2,4]triazolo[1,5-a]pyridin-7-yloxy)-2-methoxyphenyl)amino)-7-methoxyquinazolin-6-yl)-2-fluoro-3-(1-methylpyrrolidin-2-yl)acrylamide], the GI50 in assay [1] and in assay [2] was no more than 50 nM in each case.
On to `COc1cc2ncnc(Nc3cc(Cl)c(Oc4ccn5ncnc5c4)cc3OC)c2cc1NC(=O)/C(F)=C\[C@H]1CCCN1C` [Example 51, (R,E)-N-(4-((4-([1,2,4]triazolo[1,5-a]pyridin-7-yloxy)-5-chloro-2-methoxyphenyl)amino)-7-methoxyquinazolin-6-yl)-2-fluoro-3-(1-methylpyrrolidin-2-yl)acrylamide], for which the GI50 in assay [1] and in assay [2] was no more than 50 nM throughout.
`CCN1CCC[C@@H]1/C=C(/F)C(=O)Nc1cc2c(Nc3cc(C)c(Oc4ccn5ncnc5c4)cc3OC)ncnc2cc1OC` [Example 52, (R,E)-N-(4-((4-([1,2,4]triazolo[1,5-a]pyridin-7-yloxy)-2-methoxy-5-methylphenyl)amino)-7-methoxyquinazolin-6-yl)-3-(1-ethylpyrrolidin-2-yl)-2-fluoroacrylamide]: the GI50 in assay [1] and in assay [2] was no more than 50 nM throughout.
For the molecule `COc1cc2ncnc(Nc3cc(C(F)(F)F)c(Oc4ccn5ncnc5c4)cc3OC)c2cc1NC(=O)/C(F)=C/[C@H]1CCCN1C` [Example 54, (R,Z)—N-(4-((4-([1,2,4]triazolo[1,5-a]pyridin-7-yloxy)-2-methoxy-5-(trifluoromethyl)phenyl)amino)-7-methoxyquinazolin-6-yl)-2-fluoro-3-(1-methylpyrrolidin-2-yl)acrylamide], the GI50 in assay [1] is no more than 50 nM. The molecule further yielded an IC50 in assay [3] of no more than 50 nM.
In the case of `COc1cc2ncnc(Nc3cc(C)c(Oc4ccc5ncn(C)c5c4)cc3OC)c2cc1NC(=O)/C(F)=C\[C@H]1CCCN1C` [Example 55, (R,E)-2-fluoro-N-(7-methoxy-4-((2-methoxy-5-methyl-4-((1-methyl-1H-benzo[d]imidazol-6-yl)oxy)phenyl)amino)quinazolin-6-yl)-3-(1-methylpyrrolidin-2-yl)acrylamide], the GI50 in assay [1] and in assay [2] was no more than 50 nM throughout.
On to `COc1cc2ncnc(Nc3cc(C)c(Oc4ccccc4)cc3OC)c2cc1NC(=O)/C(F)=C\[C@H]1CCCN1C` [Example 74, (R,E)-2-fluoro-N-(7-methoxy-4-((2-methoxy-5-methyl-4-phenoxyphenyl)amino)quinazolin-6-yl)-3-(1-methylpyrrolidin-2-yl)acrylamide], for which the GI50 in assay [1] and in assay [2] was no more than 50 nM throughout.
`COc1cc2ncnc(Nc3cc(C)c(Oc4ccn5ccnc5c4)cc3OC)c2cc1NC(=O)/C(F)=C/[C@H]1CCCN1C` [Example 76, (R,Z)-2-fluoro-N-(4-((4-(imidazo[1,2-a]pyridin-7-yloxy)-2-methoxy-5-methylphenyl)amino)-7-methoxyquinazolin-6-yl)-3-(1-methylpyrrolidin-2-yl)acrylamide]: the GI50 in assay [1] and in assay [2] was no more than 50 nM throughout.
With `COc1cc(Oc2ccn3ncnc3c2)c(C)cc1Nc1ncnc2ccc(NC(=O)/C(F)=C\[C@H]3CCCN3C)cc12` [Example 91, (R,E)-N-(4-((4-([1,2,4]triazolo[1,5-a]pyridin-7-yloxy)-2-methoxy-5-methylphenyl)amino)quinazolin-6-yl)-2-fluoro-3-(1-methylpyrrolidin-2-yl)acrylamide], the GI50 in assay [1] and in assay [2] was no more than 50 nM each time.
Turning to `CCOc1cc2ncnc(Nc3cc(C)c(Oc4ccn5ncnc5c4)cc3OC)c2cc1NC(=O)/C(F)=C\[C@H]1CCCN1C` [Example 93, (R,E)-N-(4-((4-([1,2,4]triazolo[1,5-a]pyridin-7-yloxy)-2-methoxy-5-methylphenyl)amino)-7-ethoxyquinazolin-6-yl)-2-fluoro-3-(1-methylpyrrolidin-2-yl)acrylamide], the GI50 in assay [1] and in assay [2] was no more than 50 nM in each case.
Consider `COCCOc1cc2ncnc(Nc3cc(C)c(Oc4ccn5ncnc5c4)cc3OC)c2cc1NC(=O)/C(F)=C/[C@H]1CCCN1C` [Example 95, (R,Z)—N-(4-((4-([1,2,4]triazolo[1,5-a]pyridin-7-yloxy)-2-methoxy-5-methylphenyl)amino)-7-(2-methoxyethoxy)quinazolin-6-yl)-2-fluoro-3-(1-methylpyrrolidin-2-yl)acrylamide], for which the concentration for 50% growth inhibition (GI50) in assay [1] and in assay [2] was no more than 50 nM each time.
For the molecule `CCOc1cc(Oc2ccn3ncnc3c2)c(C)cc1Nc1ncnc2cc(OC)c(NC(=O)/C(F)=C\[C@H]3CCCN3C)cc12` [Example 104, (R,E)-N-(4-((4-([1,2,4]triazolo[1,5-a]pyridin-7-yloxy)-2-ethoxy-5-methylphenyl)amino)-7-methoxyquinazolin-6-yl)-2-fluoro-3-(1-methylpyrrolidin-2-yl)acrylamide], the GI50 in assay [1] and in assay [2] was no more than 50 nM each time.
As for `COc1cc2ncnc(Nc3cc(C)c(Oc4ccn5ncnc5c4)cc3OC)c2cc1NC(=O)/C(F)=C\[C@H]1CCCN1` [Example 134, (R,E)-N-(4-((4-([1,2,4]triazolo[1,5-a]pyridin-7-yloxy)-2-methoxy-5-methylphenyl)amino)-7-methoxyquinazolin-6-yl)-2-fluoro-3-(pyrrolidin-2-yl)acrylamide], the GI50 in assay [1] and in assay [2] was no more than 50 nM each time.
Regarding `COc1cc2ncnc(Nc3cc(C)c(Oc4ccn5ncnc5c4)cc3OC)c2cc1NC(=O)/C(Cl)=C\[C@H]1CCCN1C` [Example 136, (R,E)-N-(4-((4-([1,2,4]triazolo[1,5-a]pyridin-7-yloxy)-2-methoxy-5-methylphenyl)amino)-7-methoxyquinazolin-6-yl)-2-chloro-3-(1-methylpyrrolidin-2-yl)acrylamide], the GI50 in assay [1] and in assay [2] was no more than 50 nM in each case.
